According to patent publication US9974306B2, “Herbicidal combinations for tolerant soybean cultures” (priority 2012, dated 2018):

What was measured:
GLXMA GM_W336 = test: Post-emergence greenhouse treatment, visual rating of effect on W336 transgenic (HPPD inhibitor tolerant) soybean; assay type: in vivo; settings: for Effect (%): GLXMA GM_W336
Protocol: (§1) The soybeans were grown under the same conditions as described above. The following three varieties were used in the tests:
(§2) 1) W336—Transgenic soybean plants comprising a chimeric gene encoding a W336 mutant HPPD protein of Pseudomonas fluorescens (U.S. Pat. No. 6,245,968) fused to the optimized transit peptide for chloroplast targeting (U.S. Pat. No. 5,510,471), and under the control of the 35S CaMV promoter (Odell et al., 1985, Nature 313: 810-812) fused to the 5′ enhancer sequence of TEV (Carrington and Freed, 1990, J. Virol. 64: 1590-1597), with as 3′ transcript termination and polyadenylation region that of the CaMV 35S gene (Sanfacon et al., 1991, Genes & Development 5:141-149), abbreviated as “W336 soybean plants” herein. 2) MERLIN—conventional 3) PROTINA—conventional
(§3) Two sets of soybeans reaching different growth stages at application time were prepared: one up to growth stage BBCH 11 (1-2 leaf stage) and the other up to BBCH 13 (3-4 leaf stage). Both soybean sets were treated at the same time (together with the weeds) but they were evaluated separately.
(§4) The applications were performed by post emergence treatments on the planted pots using a spray volume of 300 L water per hectare. The herbicides were applied alone and in combination as in the tables below.
(§5) The trial was conducted in the greenhouse ensuring optimal growing conditions.
(§6) The herbicidal effects were assessed 14 and 24 days following application by visual ratings comparing treated and untreated plants (0%=no effect to 100%=complete die-off).
(§7) The visual ratings are used to calculate interactions between treatments alone and combination treatments according to S. R. Colby, Weeds 15, pages 20 to 22 (1967).

GLXMA Protina = test: Post-emergence greenhouse treatment, visual rating of effect on conventional soybean PROTINA; assay type: in vivo; settings: for Effect (%): GLXMA Protina
Protocol: as §1, §2, §3, §4, §5, §6, §7

BRAPP = test: Post-emergence greenhouse treatment, visual rating of herbicidal effect; assay type: in vivo, Brachiaria platyphylla; settings: for Effect (%): BRAPP
Protocol: (§8) Seeds of grass and broadleaf weeds were sown in pots (diameter: 8 cm) filled with a sandy loam soil. For the herbicide post-emergent treatment, the weeds were grown under optimal conditions up to a growth stage of BBCH 11 (1-2 leaf stage) to 14 (3-4 leaf stage) depending on species. The following weeds were used:
as §4, §5, §6, §7

SETVI = test: as above; assay type: in vivo, Setaria viridis; settings: 1-2 leaf; for Effect: 24 d; for Effect (%): SETVI, assessment 24 d
Protocol: as §8, §4, §5, §6, §7

SORHA = test: as above; assay type: in vivo, Sorghum halepense
Protocol: as §8, §4, §5, §6, §7

PHBPU = test: as above; assay type: in vivo, Pharbitis purpurea
Protocol: as §8, §4, §5, §6, §7

GLXMA Merlin = test: Post-emergence greenhouse treatment, visual rating of effect on conventional soybean MERLIN; assay type: in vivo; settings: for Effect (%): GLXMA Merlin, assessment 24 d
Protocol: as §1, §2, §3, §4, §5, §6, §7

BIDPI = test: Post-emergence greenhouse treatment, visual rating of herbicidal effect; assay type: in vivo, Bidens pilosa
Protocol: as §8, §4, §5, §6, §7

EPHHL = test: as above; assay type: in vivo, Euphorbia heterophylla
Protocol: as §8, §4, §5, §6, §7

POLCO = test: as above; assay type: in vivo, Polygonum convolvulus; settings: for Effect (%): POLCO
Protocol: as §8, §4, §5, §6, §7

SETFA = test: as above; assay type: in vivo, Setaria faberi; settings: 1-2 leaf
Protocol: as §8, §4, §5, §6, §7

[1] = 1-2 leaf, 14 d, 20 g a.i./ha alone
[2] = 1-2 leaf, 24 d, 5 g a.i./ha alone
[3] = 1-2 leaf, 24 d, 10 g a.i./ha alone
[4] = 1-2 leaf, 24 d, 20 g a.i./ha alone
[5] = 3-4 leaf, 14 d, 5 g a.i./ha alone
[6] = 3-4 leaf, 14 d, 20 g a.i./ha alone
[7] = 1-2 leaf, assessment 24 d, (A1) alone 2.5 g a.i./ha
[8] = 1-2 leaf, assessment 24 d, (A1) alone 5 g a.i./ha
[9] = 1-2 leaf, assessment 24 d, (A1) alone 10 g a.i./ha
[10] = 3-4 leaf, assessment 14 d, (A1) alone 5 g a.i./ha

For `CS(=O)(=O)c1cc(C(F)(F)F)ccc1C(=O)c1cnoc1C1CC1` [(A4), (5-cyclopropyl-1,2-oxazol-4-yl)(α,α,α-trifluoro-2-mesyl-p-tolyl)methanone], which Effect (GLXMA GM_W336; 1-2 leaf, 24 d, 20 g a.i./ha) is on record?
Its Effect is 10%.

What about the Effect (GLXMA GM_W336; 3-4 leaf, 14 d, 10 g a.i./ha) of the same compound?
The Effect was 10%.

And the Effect (GLXMA Protina; 1-2 leaf, 24 d, 20 g a.i./ha)?
Its Effect is 75%.

And the Effect (GLXMA Protina; 3-4 leaf, 14 d, 10 g a.i./ha)?
The Effect was 35%.

What about the Effect (BRAPP; 3-4 leaf, 14 d, 10 g a.i./ha) of the same compound?
Its Effect is 15%.

And the Effect (SETVI; 20 g a.i./ha)?
Its Effect is 10%.

And the Effect (SORHA; 1-2 leaf, 24 d, 20 g a.i./ha)?
The Effect was 40%.

What about the Effect (PHBPU; 3-4 leaf, 14 d, 10 g a.i./ha) of the same compound?
Its Effect is 40%.

Which results are given for `CS(=O)(=O)c1ccc(C(=O)C2C(=O)CCCC2=O)c([N+](=O)[O-])c1` [(A2), 2-(4-mesyl-2-nitrobenzoyl)cyclohexane-1,3-dione]?
Effect (GLXMA GM_W336; [1]): 20%; Effect (GLXMA GM_W336; [2]): 15%; Effect (GLXMA GM_W336; [3]): 15%; Effect (GLXMA GM_W336; [4]): 25%; Effect (GLXMA GM_W336; [5]): 15%; Effect (GLXMA GM_W336; [6]): 25%; Effect (GLXMA Protina; [1]): 45%; Effect (GLXMA Protina; [2]): 15%; Effect (GLXMA Protina; [3]): 20%; Effect (GLXMA Protina; [4]): 40%; Effect (GLXMA Protina; [6]): 50%; Effect (GLXMA Merlin; [5]): 30%; Effect (BRAPP; [1]): 50%; Effect (BRAPP; [3]): 25%; Effect (BRAPP; [4]): 35%; Effect (SETVI; 5 g a.i./ha alone): 0%; Effect (SORHA; [2]): 0%; Effect (SORHA; [5]): 0%; Effect (SORHA; [6]): 15%; Effect (BIDPI; [4]): 20%; Effect (EPHHL; [1]): 30%; Effect (EPHHL; [3]): 10%; Effect (EPHHL; [4]): 10%; Effect (PHBPU; [3]): 75%; Effect (POLCO; [3]): 20%; Effect (POLCO; [5]): 20%; Effect (POLCO; [6]): 65%

Which results are given for `CS(=O)(=O)c1ccc(C(=O)C2C(=O)CCCC2=O)c(Cl)c1COCC(F)(F)F` [(A1), 2-{2-chloro-4-mesyl-3-[(2,2,2-trifluoroethoxy)methyl]benzoyl}cyclohexane-1,3-dione]?
Effect (%) (GLXMA GM_W336; [7]): 15%; Effect (%) (GLXMA GM_W336; [8]): 15%; Effect (%) (GLXMA GM_W336; [9]): 15%; Effect (%) (GLXMA GM_W336; [10]): 20%; Effect (%) (GLXMA Protina; [7]): 65%; Effect (%) (GLXMA Protina; [8]): 75%; Effect (%) (GLXMA Protina; [10]): 55%; Effect (%) (GLXMA Merlin; 1-2 leaf, (A1) alone 5 g a.i./ha): 75%; Effect (%) (GLXMA Merlin; 1-2 leaf, (A1) alone 10 g a.i./ha): 80%; Effect (%) (BRAPP; [8]): 10%; Effect (%) (BRAPP; [9]): 10%; Effect (%) (BRAPP; [10]): 25%; Effect (%) (SETFA; SETFA, assessment 24 d, (A1) alone 2.5 g a.i./ha): 0%; Effect (%) (SETVI; (A1) alone 5 g a.i./ha): 40%; Effect (%) (SETVI; (A1) alone 10 g a.i./ha): 40%; Effect (%) (SORHA; SORHA, 1-2 leaf, assessment 24 d, (A1) alone 5 g a.i./ha): 20%; Effect (%) (BIDPI; BIDPI, 3-4 leaf, assessment 14 d, (A1) alone 5 g a.i./ha): 10%; Effect (%) (POLCO; [7]): 0%; Effect (%) (POLCO; [8]): 0%; Effect (%) (POLCO; [10]): 10%

Which Effect (GLXMA GM_W336; 1-2 leaf, 24 d, 1.5 g a.i./ha) does the source give for `Cc1c(C(=O)c2cnn(C)c2O)ccc(S(C)(=O)=O)c1C1=NOCC1` [(A5), [3-(4,5-dihydro-1,2-oxazol-3-yl)-4-mesyl-o-tolyl](5-hydroxy-1-methylpyrazol-4-yl)methanone] here?
The Effect was 15%.

And the Effect (GLXMA GM_W336; 3-4 leaf, 14 d, 3 g a.i./ha)?
The Effect was 30%.

And the Effect (GLXMA GM_W336; 3-4 leaf, 24 d, 3 g a.i./ha)?
Its Effect is 30%.

What about the Effect (GLXMA Protina; 3-4 leaf, 14 d, 3 g a.i./ha) of the same compound?
The Effect was 50%.

And the Effect (GLXMA Protina; 3-4 leaf, 24 d, 3 g a.i./ha)?
The Effect was 50%.

What about the Effect (GLXMA Merlin; 1-2 leaf, 24 d, 1.5 g a.i./ha) of the same compound?
The Effect was 55%.

What about the Effect (SETFA; 24 d, 1.5 g a.i./ha) of the same compound?
Its Effect is 30%.

And the Effect (SORHA; 3-4 leaf, 14 d, 3 g a.i./ha)?
Its Effect is 15%.

And the Effect (SORHA; 3-4 leaf, 24 d, 3 g a.i./ha)?
Its Effect is 10%.

What about the Effect (BIDPI; 3-4 leaf, 14 d, 3 g a.i./ha) of the same compound?
The Effect was 25%.

And the Effect (BIDPI; 3-4 leaf, 24 d, 3 g a.i./ha)?
The Effect was 10%.

What about the Effect (PHBPU; 1-2 leaf, 24 d, 1.5 g a.i./ha) of the same compound?
The Effect was 30%.

With `COCCOCc1nc(C(F)(F)F)ccc1C(=O)C1=C(O)C2CCC(C2)C1=O` (stereo not drawn) [(A6), 4-hydroxy-3-{2-[(2-methoxyethoxy)methyl]-6-(trifluoromethyl)-3-pyridylcarbonyl}bicyclo[3.2.1]oct-3-en-2-one] as the compound, how does the Effect (GLXMA GM_W336; 1-2 leaf, 14 d, 5 g a.i./ha) read?
Its Effect is 5%.

What about the Effect (GLXMA GM_W336; 3-4 leaf, 14 d, 10 g a.i./ha) of the same compound?
Its Effect is 25%.

And the Effect (GLXMA GM_W336; 3-4 leaf, 14 d, 20 g a.i./ha)?
The Effect was 30%.

What about the Effect (GLXMA GM_W336; 3-4 leaf, 24 d, 10 g a.i./ha) of the same compound?
The Effect was 25%.

What about the Effect (GLXMA GM_W336; 3-4 leaf, 24 d, 20 g a.i./ha) of the same compound?
Its Effect is 30%.

What about the Effect (GLXMA Protina; 1-2 leaf, 14 d, 5 g a.i./ha) of the same compound?
The Effect was 50%.

What about the Effect (GLXMA Protina; 3-4 leaf, 14 d, 10 g a.i./ha) of the same compound?
Its Effect is 45%.

What about the Effect (GLXMA Protina; 3-4 leaf, 14 d, 20 g a.i./ha) of the same compound?
The Effect was 60%.

And the Effect (GLXMA Merlin; 3-4 leaf, 24 d, 10 g a.i./ha)?
Its Effect is 50%.

And the Effect (GLXMA Merlin; 3-4 leaf, 24 d, 20 g a.i./ha)?
The Effect was 50%.

What about the Effect (BRAPP; 3-4 leaf, 14 d, 10 g a.i./ha) of the same compound?
Its Effect is 15%.

And the Effect (BRAPP; 3-4 leaf, 14 d, 20 g a.i./ha)?
The Effect was 25%.

And the Effect (BRAPP; 3-4 leaf, 24 d, 20 g a.i./ha)?
Its Effect is 15%.

And the Effect (SETFA; 14 d, 5 g a.i./ha)?
Its Effect is 15%.

And the Effect (SORHA; 1-2 leaf, 14 d, 5 g a.i./ha)?
Its Effect is 0%.

And the Effect (BIDPI; 3-4 leaf, 24 d, 20 g a.i./ha)?
The Effect was 30%.

What about the Effect (EPHHL; 3-4 leaf, 24 d, 10 g a.i./ha) of the same compound?
The Effect was 40%.

And the Effect (POLCO; 3-4 leaf, 14 d, 10 g a.i./ha)?
The Effect was 50%.

What about the Effect (POLCO; 3-4 leaf, 14 d, 20 g a.i./ha) of the same compound?
Its Effect is 50%.

What about the Effect (POLCO; 3-4 leaf, 24 d, 10 g a.i./ha) of the same compound?
Its Effect is 35%.
